According to article PMC12090182, “Repurposing of the RIPK1-Selective Benzo[1,4]oxazepin-4-one Scaffold for the Development of a Type III LIMK1/2 Inhibitor” (ACS Chemical Biology, 2025):
Where two headings read alike, the source gives them in different places.

Tested on: U2OS cells
Format: cell-based
Conditions: U2OS
Procedure: To assess the influence on cell health, a high-content screening in living cells called the multiplex high-content assay, as described previously by Tjaden et al., was performed.[38] In brief, HEK293T (ATCC CRL-1573) and U2OS (ATCCHTB-96) were cultured in DMEM plus L-glutamine (high glucose) supplemented by 10% FBS (Gibco) and penicillin/streptomycin (Gibco). MRC-9 fibroblasts ([…]) were cultured in EMEM plus L-glutamine supplemented by 10% FBS (Gibco) and penicillin/streptomycin (Gibco). Cells were seeded at a density of 1250 cells per well in a 384-well plate in a culture medium (cell culture microplate, PS, f-bottom, μClear, 781091, Greiner), with a volume of 50 μL per well. All outer wells were filled with 100 μL of PBS buffer (Gibco). […] The cell shape and fluorescence were measured before treatment and 12, 24, and 48 h after compound treatment using the CQ1 high-content confocal microscope (Yokogawa, Musashino, Japan). […] The compounds were tested at 1 and 10 μM, respectively. Acquired images of the cells were processed using Yokogawa CellPathfinder software (v3.04.02.02). […] Results were normalized to cells exposed to 0.1% DMSO. All compounds were tested in biological duplicates, and SEM (standard error of mean) was calculated of biological duplicates.

[1] = 1 µM, 0 h after treatment, biological replicate 1
[2] = 1 µM, 0 h after treatment, biological replicate 2
[3] = 1 µM, 12 h after treatment, biological replicate 1
[4] = 1 µM, 12 h after treatment, biological replicate 2
[5] = 1 µM, 24 h after treatment, biological replicate 1
[6] = 1 µM, 24 h after treatment, biological replicate 2
[7] = 1 µM, 48 h after treatment, biological replicate 1
[8] = 1 µM, 48 h after treatment, biological replicate 2
[9] = 10 µM, 0 h after treatment, biological replicate 1
[10] = 10 µM, 0 h after treatment, biological replicate 2
[11] = 10 µM, 12 h after treatment, biological replicate 1
[12] = 10 µM, 12 h after treatment, biological replicate 2
[13] = 10 µM, 24 h after treatment, biological replicate 1
[14] = 10 µM, 24 h after treatment, biological replicate 2
[15] = 10 µM, 48 h after treatment, biological replicate 1
[16] = 10 µM, 48 h after treatment, biological replicate 2

Structure (SMILES): CC(C)C(=O)Nc1ncc(C(=O)NCCN(Cc2ccccc2)C(=O)c2ccc(S(=O)(=O)Nc3ccccc3)cc2)s1 [TH470]
- Cell count normalized to cells treated with DMSO control [1]: 0.966
- Cell count per well [1]: 201
- Population Fragmented Nuclei (%) [1]: 47.72%
- Population Healthy Nuclei (%) [1]: 44.16%
- Population Pyknosed Nuclei (%) [1]: 8.12%
- Population apoptotic cell (%) [1]: 87.50%
- Population cell that influence microtubule strucutre (%) [1]: 6.90%
- Population with increased mitochondrial mass (%) [1]: 2.30%
- Population with membrane disruption (%) [1]: 9.20%
- Cell count normalized to cells treated with DMSO control [2]: 1.038
- Cell count per well [2]: 89
- Population Fragmented Nuclei (%) [2]: 15.73%
- Population Healthy Nuclei (%) [2]: 79.78%
- Population Pyknosed Nuclei (%) [2]: 4.49%
- Population apoptotic cell (%) [2]: 50.00%
- Population cell that influence microtubule strucutre (%) [2]: 5.63%
- Population with increased mitochondrial mass (%) [2]: 4.23%
- Population with membrane disruption (%) [2]: 4.23%
- Cell count normalized to cells treated with DMSO control [3]: 0.8658
- Cell count per well [3]: 229
- Population Fragmented Nuclei (%) [3]: 36.24%
- Population Healthy Nuclei (%) [3]: 55.96%
- Population Pyknosed Nuclei (%) [3]: 7.80%
- Population apoptotic cell (%) [3]: 76.47%
- Population cell that influence microtubule strucutre (%) [3]: 1.64%
- Population with increased mitochondrial mass (%) [3]: 4.10%
- Population with membrane disruption (%) [3]: 4.10%
- Cell count normalized to cells treated with DMSO control [4]: 1.074
- Cell count per well [4]: 127
- Population Fragmented Nuclei (%) [4]: 17.89%
- Population Healthy Nuclei (%) [4]: 73.98%
- Population Pyknosed Nuclei (%) [4]: 8.13%
- Population apoptotic cell (%) [4]: 100.00%
- Population cell that influence microtubule strucutre (%) [4]: 4.40%
- Population with increased mitochondrial mass (%) [4]: 4.40%
- Population with membrane disruption (%) [4]: 12.09%
- Cell count normalized to cells treated with DMSO control [5]: 0.8405
- Cell count per well [5]: 262
- Population Fragmented Nuclei (%) [5]: 31.54%
- Population Healthy Nuclei (%) [5]: 59.62%
- Population Pyknosed Nuclei (%) [5]: 8.85%
- Population apoptotic cell (%) [5]: 73.91%
- Population cell that influence microtubule strucutre (%) [5]: 2.58%
- Population with increased mitochondrial mass (%) [5]: 4.52%
- Population with membrane disruption (%) [5]: 5.16%
- Cell count normalized to cells treated with DMSO control [6]: 1.041
- Cell count per well [6]: 148
- Population Fragmented Nuclei (%) [6]: 19.59%
- Population Healthy Nuclei (%) [6]: 67.57%
- Population Pyknosed Nuclei (%) [6]: 12.84%
- Population apoptotic cell (%) [6]: 94.74%
- Population cell that influence microtubule strucutre (%) [6]: 3.00%
- Population with increased mitochondrial mass (%) [6]: 4.00%
- Population with membrane disruption (%) [6]: 4.00%
- Cell count normalized to cells treated with DMSO control [7]: 0.7931
- Cell count per well [7]: 353
- Population Fragmented Nuclei (%) [7]: 26.16%
- Population Healthy Nuclei (%) [7]: 66.57%
- Population Pyknosed Nuclei (%) [7]: 7.27%
- Population apoptotic cell (%) [7]: 80.00%
- Population cell that influence microtubule strucutre (%) [7]: 3.06%
- Population with increased mitochondrial mass (%) [7]: 2.62%
- Population with membrane disruption (%) [7]: 3.93%
- Cell count normalized to cells treated with DMSO control [8]: 1.07
- Cell count per well [8]: 221
- Population Fragmented Nuclei (%) [8]: 17.59%
- Population Healthy Nuclei (%) [8]: 71.30%
- Population Pyknosed Nuclei (%) [8]: 11.11%
- Population apoptotic cell (%) [8]: 87.50%
- Population cell that influence microtubule strucutre (%) [8]: 5.84%
- Population with increased mitochondrial mass (%) [8]: 3.90%
- Population with membrane disruption (%) [8]: 5.84%
- Cell count normalized to cells treated with DMSO control [9]: 1.105
- Cell count per well [9]: 230
- Population Fragmented Nuclei (%) [9]: 38.01%
- Population Healthy Nuclei (%) [9]: 52.49%
- Population Pyknosed Nuclei (%) [9]: 9.50%
- Population apoptotic cell (%) [9]: 85.71%
- Population cell that influence microtubule strucutre (%) [9]: 0.86%
- Population with increased mitochondrial mass (%) [9]: 0.86%
- Population with membrane disruption (%) [9]: 3.45%
- Cell count normalized to cells treated with DMSO control [10]: 0.875
- Cell count per well [10]: 75
- Population Fragmented Nuclei (%) [10]: 10.67%
- Population Healthy Nuclei (%) [10]: 82.67%
- Population Pyknosed Nuclei (%) [10]: 6.67%
- Population apoptotic cell (%) [10]: 80.00%
- Population cell that influence microtubule strucutre (%) [10]: 3.23%
- Population with increased mitochondrial mass (%) [10]: 3.23%
- Population with membrane disruption (%) [10]: 6.45%
- Cell count normalized to cells treated with DMSO control [11]: 0.9149
- Cell count per well [11]: 242
- Population Fragmented Nuclei (%) [11]: 26.79%
- Population Healthy Nuclei (%) [11]: 56.70%
- Population Pyknosed Nuclei (%) [11]: 16.52%
- Population apoptotic cell (%) [11]: 64.86%
- Population cell that influence microtubule strucutre (%) [11]: 62.20%
- Population with increased mitochondrial mass (%) [11]: 41.73%
- Population with membrane disruption (%) [11]: 55.91%
- Cell count normalized to cells treated with DMSO control [12]: 0.8031
- Cell count per well [12]: 95
- Population Fragmented Nuclei (%) [12]: 10.75%
- Population Healthy Nuclei (%) [12]: 74.19%
- Population Pyknosed Nuclei (%) [12]: 15.05%
- Population apoptotic cell (%) [12]: 85.71%
- Population cell that influence microtubule strucutre (%) [12]: 39.13%
- Population with increased mitochondrial mass (%) [12]: 52.17%
- Population with membrane disruption (%) [12]: 28.99%
- Cell count normalized to cells treated with DMSO control [13]: 0.8277
- Cell count per well [13]: 258
- Population Fragmented Nuclei (%) [13]: 25.41%
- Population Healthy Nuclei (%) [13]: 59.43%
- Population Pyknosed Nuclei (%) [13]: 15.16%
- Population apoptotic cell (%) [13]: 75.68%
- Population cell that influence microtubule strucutre (%) [13]: 25.52%
- Population with increased mitochondrial mass (%) [13]: 33.10%
- Population with membrane disruption (%) [13]: 26.90%
- Cell count normalized to cells treated with DMSO control [14]: 0.7946
- Cell count per well [14]: 113
- Population Fragmented Nuclei (%) [14]: 10.81%
- Population Healthy Nuclei (%) [14]: 73.87%
- Population Pyknosed Nuclei (%) [14]: 15.32%
- Population apoptotic cell (%) [14]: 70.59%
- Population cell that influence microtubule strucutre (%) [14]: 19.51%
- Population with increased mitochondrial mass (%) [14]: 31.71%
- Population with membrane disruption (%) [14]: 9.76%
- Cell count normalized to cells treated with DMSO control [15]: 0.7572
- Cell count per well [15]: 337
- Population Fragmented Nuclei (%) [15]: 22.70%
- Population Healthy Nuclei (%) [15]: 63.19%
- Population Pyknosed Nuclei (%) [15]: 14.11%
- Population apoptotic cell (%) [15]: 89.13%
- Population cell that influence microtubule strucutre (%) [15]: 11.65%
- Population with increased mitochondrial mass (%) [15]: 14.56%
- Population with membrane disruption (%) [15]: 12.62%
- Cell count normalized to cells treated with DMSO control [16]: 0.76
- Cell count per well [16]: 157
- Population Fragmented Nuclei (%) [16]: 10.00%
- Population Healthy Nuclei (%) [16]: 69.33%
- Population Pyknosed Nuclei (%) [16]: 20.67%
- Population apoptotic cell (%) [16]: 87.10%
- Population cell that influence microtubule strucutre (%) [16]: 14.42%
- Population with increased mitochondrial mass (%) [16]: 14.42%
- Population with membrane disruption (%) [16]: 11.54%
